Laboratory results reported in patent publication US20250289789A1, “REVERSIBLE LYSINE COVALENT MODIFIERS OF CDK2 AND USES THEREOF” (Terremoto Biosciences, Inc., priority 2023, published 2025).
Where two headings read alike, the source gives them in different places.

Columns and labels:
Format in all cases: cell-based
[1] = molecular target: T1, CDK4-NanoLuc fusion with CCND1 in 293T or 293 cells (Homo sapiens, UniProt P11802); test: NanoBRET Target Engagement (TE) Intracellular Kinase Assay, CDK4/CCND1; conditions: NanoBRET TE intracellular kinase assay, 2-hour incubation, read-out: NanoBRET-CDK4/D1 IC50
T1 construct: host or cells: 293T (ATCC CRL-3216) or 293 (ATCC CRL-1573)
T1 sequence (P11802 whole entry, the tested form may be a part): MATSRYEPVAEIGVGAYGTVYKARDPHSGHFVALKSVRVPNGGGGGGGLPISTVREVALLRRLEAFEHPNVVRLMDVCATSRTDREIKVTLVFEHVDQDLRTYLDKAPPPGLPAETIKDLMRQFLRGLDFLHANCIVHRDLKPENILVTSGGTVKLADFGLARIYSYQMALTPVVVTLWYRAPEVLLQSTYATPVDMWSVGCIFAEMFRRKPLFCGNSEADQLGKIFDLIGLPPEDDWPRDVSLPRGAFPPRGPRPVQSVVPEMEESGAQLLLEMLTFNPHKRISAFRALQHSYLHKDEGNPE
T1 sequence (P24385 whole entry partner, the tested form may be a part): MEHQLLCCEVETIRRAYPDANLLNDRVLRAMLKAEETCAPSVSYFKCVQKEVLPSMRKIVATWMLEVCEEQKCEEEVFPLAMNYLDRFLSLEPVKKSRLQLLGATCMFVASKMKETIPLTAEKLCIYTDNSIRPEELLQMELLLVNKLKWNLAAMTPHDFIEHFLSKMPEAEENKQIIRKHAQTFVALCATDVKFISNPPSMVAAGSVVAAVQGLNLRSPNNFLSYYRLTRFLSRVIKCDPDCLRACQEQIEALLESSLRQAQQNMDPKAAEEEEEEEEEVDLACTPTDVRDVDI

[2] = molecular target: T2, CDK2-NanoLuc fusion with CCNE1 in 293T or 293 cells (Homo sapiens, UniProt P24941); test: NanoBRET Target Engagement (TE) Intracellular Kinase Assay, CDK2/CCNE1; conditions: 2-hour incubation
T2 construct: host or cells: 293T (ATCC CRL-3216) or 293 (ATCC CRL-1573)

[3] = molecular target: T3, CDK1-NanoLuc fusion with CCNB1 in 293T or 293 cells (Homo sapiens, UniProt P06493); test: NanoBRET Target Engagement (TE) Intracellular Kinase Assay, CDK1/CCNB1; conditions: NanoBRET TE intracellular kinase assay, 2-hour incubation, read-out: NanoBRET-CDK1/B1 IC50
T3 construct: host or cells: 293T (ATCC CRL-3216) or 293 (ATCC CRL-1573)
T3 sequence (P06493 whole entry, the tested form may be a part): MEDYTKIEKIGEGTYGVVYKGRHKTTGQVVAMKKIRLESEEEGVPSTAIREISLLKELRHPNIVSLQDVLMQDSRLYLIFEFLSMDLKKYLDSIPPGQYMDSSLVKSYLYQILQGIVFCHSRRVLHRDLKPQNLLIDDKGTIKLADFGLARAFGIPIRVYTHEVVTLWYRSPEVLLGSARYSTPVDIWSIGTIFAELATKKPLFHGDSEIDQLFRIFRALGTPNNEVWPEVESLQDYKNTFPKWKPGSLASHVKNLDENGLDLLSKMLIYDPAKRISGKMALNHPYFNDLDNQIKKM
T3 sequence (P14635 whole entry partner, the tested form may be a part): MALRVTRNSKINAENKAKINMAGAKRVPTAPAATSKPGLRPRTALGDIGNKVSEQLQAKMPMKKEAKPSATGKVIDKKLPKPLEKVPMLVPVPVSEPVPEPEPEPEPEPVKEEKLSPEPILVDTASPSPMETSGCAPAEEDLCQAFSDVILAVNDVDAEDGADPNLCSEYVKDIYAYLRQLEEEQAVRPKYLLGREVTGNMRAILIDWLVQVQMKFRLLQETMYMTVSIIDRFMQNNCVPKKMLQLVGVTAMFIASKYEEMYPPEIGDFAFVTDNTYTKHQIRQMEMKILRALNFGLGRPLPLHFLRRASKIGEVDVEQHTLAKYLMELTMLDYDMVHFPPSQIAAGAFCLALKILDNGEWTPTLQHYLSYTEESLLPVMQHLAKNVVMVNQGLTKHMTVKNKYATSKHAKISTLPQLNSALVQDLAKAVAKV
Description: Inhibitory effects of compounds were measured in NanoBRET TE Intracellular Kinase Assay. 293T (ATCC; CRL-3216) or 293 (ATCC; CRL-1573) cell lines were maintained in 90% DMEM and 10% fetal bovine serum at 37° C., 5% CO2, and 95% relative humidity. Cells were trypsinized and resuspended in assay media (99% Opti-MEM I Reduced Serum Medium, no phenol red, and 1% fetal bovine serum). Cells were co-transfected with 1 μg/mL of CDK-NanoLuc Fusion Vector (Promega; NV2701 for CDK1, NV2781 for CDK2, NV2811 for CDK4, NV2841 for CDK6) and 1 μg/mL of the corresponding Cyclin Expression Vector (Promega; NV2601 for CCNB1, NV2641 for CCNE1, NV2621 for CCND1, NV2631 for CCND3) using FuGENE HD Transfection Reagent (Promega; E2311). 40 uL/well of cells with transfection mixture were seeded in 384-well plates at 1.25×10^5 to 2×10^5 cells/mL and incubated for 24 hours at 37° C., 5% CO2, and 95% relative humidity. On the next day, 100 nL of 100 μM NanoBRET Tracer K-10 (Promega; N2640) and 40 nL of 1000× test compounds prepared in DMSO were added to the cells in each well of 384-well plates for a 2-hour incubation at 37° C., 5% CO2, and 95% relative humidity. 20 uL/well of 3× Intracellular TE Nano-Glo Substrate/Inhibitor (Promega; N2162) were added to 384-well plates and incubated for 3 minutes at room temperature. NanoBRET signals (donor emission wavelength at 450 nm, acceptor emission wavelength at 610 nm) were measured using Envision plate reader (PerkinElmer). NanoBRET ratio was calculated by: BRET Ratio=raw signal for acceptor/raw signal for donor. Dose response curve normalized to DMSO control was plotted using four-parameter logistic model for IC50 calculation.

[4] = system: Phospho-Rb Ser807/811 in OVCAR3 cells; test: OVCAR3 Phospho-Rb Ser807/811 HTRF assay; conditions: OVCAR3 cells, Phospho-Rb Ser807/811 HTRF, 1 hour incubation, read-out: pRb-OVCAR3 IC50
Description: Cells were trypsinized and resuspended in 1 mM hydroxyurea (Sigma; H8627), 90% RPMI and 10% fetal bovine serum. […] Dose response curve normalized to DMSO control was plotted using four-parameter logistic model for IC50 calculation.

[5] = NanoBRET TE intracellular kinase assay, read-out: NanoBRET-CDK2/E1 IC50

| SMILES | IC50 [1] [nM] | IC50 [2, 5] [nM] | IC50 [3] [nM] | IC50 ([4]; Homo sapiens, OVCAR-3, 1 h) [nM] | IC50 [4] [nM] | IC50 ([2]; NanoBRET-CDK2/E1 IC50, NanoBRET TE intracellular kinase assay) [nM] | IC50 ([4]; Homo sapiens, OVCAR-3) [nM] |
| --- | --- | --- | --- | --- | --- | --- | --- |
| C[C@@H]1CCCN1C(=O)O[C@@H]1CC[C@H](c2cc(NC(=O)COc3cccc(O)c3C=O)n[nH]2)C1 [Compound 101, (1R,3S)-3-{5-[2-(2-formyl-3-hydroxyphenoxy)acetamido]-2H-pyrazol-3-yl}cyclopentyl (2R)-2-methylpyrrolidine-1-carboxylate; trifluoro-acetic acid] | 9200 |  | 20.3 |  |  | 5.79 | 188 |
| Cc1cc(C(=O)Nc2cc([C@H]3CC[C@@H](OC(=O)NC(C)C)C3)[nH]n2)cc(C=O)c1O [Compound 15, (1R,3S)-3-(3-(3-formyl-4-hydroxy-5-methylbenzamido)-1H-pyrazol-5-yl)cyclopentyl isopropylcarbamate trifluoroacetic acid] | 1820 | 2.65 | 25.3 | 112 |  |  |  |
| CC(C)NC(=O)O[C@@H]1CC[C@H](c2cc(NC(=O)c3ccc(C=O)c(O)c3)n[nH]2)C1 [Compound 2, (1R,3S)-3-[5-(4-formyl-3-hydroxybenzamido)-2H-pyrazol-3-yl]cyclopentyl N-isopropylcarbamate; trifluoroacetic acid] | 89.5 | 3.82 | 3.45 | 68 |  |  |  |
| COc1cc(O)c(C=O)c(OCC(=O)Nc2cc([C@H]3C[C@@H](OC(=O)NC(C)C)C3)[nH]n2)c1 [Compound 223] | > 10000 | 4.13 | 13.1 |  | 65.6 |  |  |
| CC(=O)Nc1ccc(C(=O)Nc2cc([C@H]3CC[C@@H](OC(=O)NC(C)C)C3)[nH]n2)cc1C=O [Compound 38, (1R,3S)-3-[5-(4-acetamido-3-formylbenzamido)-2H-pyrazol-3-yl]cyclopentyl N-isopropylcarbamate] | 576 | 10.6 | 264 | 542 |  |  |  |
| CC(C)NC(=O)O[C@@H]1CC[C@H](c2cc(NC(=O)C3CCN(c4cccc(O)c4C=O)C3)n[nH]2)C1 (stereo partly drawn) [Compound 93, (1R,3S)-3-{5-[1-(2-formyl-3-hydroxyphenyl)pyrrolidine-3-amido]-2H-pyrazol-3-yl}cyclopentyl N-isopropylcarbamate] | 2280 | 8.52 | 169 | 391 |  |  |  |
| COc1cc(O)c(C=O)c(OCC(=O)Nc2cc([C@H]3CC[C@@H](OC(=O)N4CC[C@@H]5C[C@@H]54)C3)[nH]n2)c1 [Compound 236] | 4250 | 1.9 | 12.8 | 32.2 |  |  |  |
| CC(C)NC(=O)O[C@@H]1CC[C@H](c2cc(NC(=O)CNc3cccc(O)c3C=O)n[nH]2)C1 [Compound 259] | > 10000 | 649 | 8060 |  |  |  |  |
| CC(C)NC(=O)O[C@@H]1CC[C@H](c2cc(NC(=O)CCCc3cccc(O)c3C=O)n[nH]2)C1 [Compound 12, 1R,3S)-3-(3-(4-(2-formyl-3-hydroxyphenyl)butanamido)-1H-pyrazol-5-yl)cyclopentyl isopropylcarbamate] | 1450 | 11.1 | 126 |  |  |  |  |
| CC(C)NC(=O)O[C@@H]1CC[C@H](c2cc(NC(=O)[C@@H]3Cc4ccc(O)c(C=O)c4C3)n[nH]2)C1 [Compound 256] |  | 3.76 | 20.3 | 68.9 |  |  |  |
| COc1cc(O)c(C=O)c2c1CC(C(=O)Nc1cc([C@H]3C[C@@H](OC(=O)NC(C)C)C3)[nH]n1)C2 (single isomer, unassigned) [Compound 282, (1R,3s)-3-(3-((*)-4-formyl-5-hydroxy-7-methoxy-2,3-dihydro-1H-indene-2-carboxamido)-1H-pyrazol-5-yl)cyclobutyl isopropylcarbamate] | 3350 | 5.3 |  | 20.4 |  |  |  |
| CC(C)NC(=O)O[C@@H]1CC[C@H](c2cc(NC(=O)[C@@H]3Cc4ccc(O)c(C=O)c4C3)n[nH]2)C1 [Compound 26, (1R,3S)-3-{5-[(2R)-4-formyl-5-hydroxy-2,3-dihydro-1H-indene-2-amido]-2H-pyrazol-3-yl}cyclopentyl N-isopropylcarbamate] |  | 2.78 | 21.7 | 94.5 |  |  |  |
| COc1cc(O)c(C=O)c2c1CC(C(=O)Nc1cc([C@H]3CC[C@@H](OC(=O)N(C)N(C)C)C3)n[nH]1)C2 (single isomer, unassigned) [Compound 284, (1R,3S)-3-(3-((*)-4-formyl-5-hydroxy-7-methoxy-2,3-dihydro-1H-indene-2-carboxamido)-1H-pyrazol-5-yl)cyclopentyl 1,2,2-trimethylhydrazine-1-carboxylate] | 2850 | 1.85 |  | 29.2 |  |  |  |
| CC(C)NC(=O)O[C@@H]1CC[C@H](c2cc(Nc3nccc4c(C=O)c(O)ccc34)n[nH]2)C1 [Compound 260, (1R,3S)-3-(3-((5-formyl-6-hydroxyisoquinolin-1-yl)amino)-1H-pyrazol-5-yl)cyclopentyl isopropylcarbamate] | > 10000 | 15 |  | 170 |  |  |  |
| COc1cc(O)c(C=O)c(OCC(=O)Nc2cc([C@H]3CC[C@@H](OC(=O)N[C@@H](C)CC(F)(F)F)C3)[nH]n2)c1 [Compound 167] | 828 | 2.8 |  | 24.3 |  |  |  |
| COc1cc(O)c(C=O)c(OCC(=O)Nc2cc([C@H]3CC[C@@H](OC(=O)N4C[C@@H]5CC[C@H]4CO5)C3)[nH]n2)c1 [Compound 157] | 7000 | 6.79 |  | 70 |  |  |  |

More lines, main results first:

| IC50 [1] [nM] | IC50 [2, 5] [nM] | IC50 [3] [nM] | IC50 ([4]; Homo sapiens, OVCAR-3, 1 h) [nM] | IC50 [4] [nM] | SMILES | IC50 ([2]; NanoBRET-CDK2/E1 IC50, NanoBRET TE intracellular kinase assay) [nM] | IC50 ([4]; Homo sapiens, OVCAR-3) [nM] |
| --- | --- | --- | --- | --- | --- | --- | --- |
| 4100 | 1.64 | 9.82 | 32.8 |  | COc1cc(O)c(C=O)c(OCC(=O)Nc2cc([C@H]3CC[C@@H](OC(=O)N4CC[C@H](C)C4)C3)[nH]n2)c1 [Compound 238] |  |  |
| 778 | 2.28 | 2.8 | 21.4 |  | COc1cc(O)c(C=O)c(OCC(=O)Nc2cc([C@H]3CC[C@@H](OC(=O)NC4(C)CCC4)C3)[nH]n2)c1 [Compound 254] |  |  |
| > 10000 | 5.67 | 41.6 | 70.5 |  | COc1cc(O)c(C=O)c(OCC(=O)Nc2cc([C@H]3CC[C@@H](OC(=O)NC[C@@H](C)OC)C3)[nH]n2)c1 [Compound 202] |  |  |
| 2340 | 2.36 |  | 29 |  | C#CCN(CC)C(=O)O[C@@H]1CC[C@H](c2cc(NC(=O)COc3cc(OC)cc(O)c3C=O)n[nH]2)C1 [Compound 144] |  |  |
| 2260 | 2.85 |  | 13.8 |  | CCN(CC#N)C(=O)O[C@@H]1CC[C@H](c2cc(NC(=O)COc3cc(OC)cc(O)c3C=O)n[nH]2)C1 [Compound 147] |  |  |
| 2800 | 4.42 |  | 19.6 |  | COc1cc(O)c(C=O)c(OCC(=O)Nc2cc([C@H]3CC[C@@H](OC(=O)N[C@@H]4C[C@@H]4F)C3)[nH]n2)c1 [Compound 133] |  |  |
| 6300 | 10.2 |  | 27.7 |  | COc1cc(O)c(C=O)c(OCC(=O)Nc2cc([C@H]3CC[C@@H](OC(=O)N[C@@H](C)CC#N)C3)[nH]n2)c1 [Compound 163] |  |  |
| 3800 | 3.26 |  | 37.1 |  | COc1cc(O)c(C=O)c(OCC(=O)Nc2cc([C@H]3CC[C@@H](OC(=O)N[C@@H](C)C(F)F)C3)[nH]n2)c1 [Compound 134] |  |  |
